Experimental data: the supplement of paper PMC10883282
± gives the standard deviation of the averaged measurements.

Tested on: KHOS-240S
Experiment: relative viability vs DMSO control (72 h) (fraction); higher = more viable cells
Method in brief: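 Relative viability was measured with ATPLite and expressed as percent growth, averaged across up to triplicate wells. Sarcoma cell lines had been seeded in 384-well plates to reach 80–90% confluence, dosed after 24 h, and incubated 72 h at 37 °C, 5% CO2. All data were rescaled on a scale where 1 is full and 0 is none.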

Compound	relative viability (0.00017 µM)	relative viability (0.00051 µM)	relative viability (0.00152 µM)	relative viability (0.00457 µM)	relative viability (0.01372 µM)	relative viability (0.04115 µM)	relative viability (0.1235 µM)	relative viability (0.3704 µM)	relative viability (1.111 µM)	relative viability (3.333 µM)	relative viability (10 µM)	relative viability (2 pM)	relative viability (5 pM)	relative viability (15 pM)	relative viability (50 pM)	relative viability (0.00014 µM)	relative viability (0.00041 µM)	relative viability (0.0012 µM)	relative viability (0.0037 µM)	relative viability (0.011 µM)	relative viability (200 fM)	relative viability (600 fM)
CCc1cc2c(cc1N1CCC(N3CCOCC3)CC1)C(C)(C)c1[nH]c3cc(C#N)ccc3c1C2=O [Alectinib]	1.06 ± 0.048	1.09 ± 0.075	1.09 ± 0.064	1.08 ± 0.066	1.06 ± 0.072	1.07 ± 0.069	1.05 ± 0.074	0.998 ± 0.079	0.996 ± 0.063	0.984 ± 0.054	0.971 ± 0.073											
COCc1c(-c2cc3cc(C)cc(OC)c3s2)c2c(N)ncnn2c1CN1CCNC(=O)C1 [Rogaratinib]	1.04 ± 0.015	1.07 ± 0.028	1.07 ± 0.046	1.07 ± 0.061	1.03 ± 0.011	0.995 ± 0.053	0.9 ± 0.025	0.821 ± 0.019	0.783 ± 0.045	0.671 ± 0.046	0.511 ± 0.036											
C[C@@H]1CCN(C(=O)CC#N)C[C@@H]1N(C)c1ncnc2[nH]ccc12 [Tofacitinib]	1.08 ± 0.068	1.05 ± 0.038	1.08 ± 0.062	1.09 ± 0.069	1.05 ± 0.031	1.05 ± 0.034	1.06 ± 0.08	1.03 ± 0.043	1.01 ± 0.076	0.977 ± 0.021	0.853 ± 0.075											
O=C(Cc1ccc(-c2ccc(OCCN3CCOCC3)cc2)cn1)NCc1ccccc1 [KX2-391]	1.07 ± 0.025	1.1 ± 0.037	1.1 ± 0.02	1.07 ± 0.035	1.06 ± 0.049	0.896 ± 0.022	0.26 ± 0.013	0.221 ± 0.014	0.161 ± 0.011	0.142 ± 0.02	0.134 ± 0.015											
C[C@@H](c1ccc2nccn2c1)n1nnc2ncc(-c3cnn(C)c3)nc21 [Volitinib]	1.041 ± 0.0092	1.044 ± 0.0082	1.07 ± 0.036	1.07 ± 0.024	1.077 ± 0.006	1.101 ± 0.007	1.09 ± 0.013	1.078 ± 0.0062	1.083 ± 0.0058	1.049 ± 0.0046	1.05 ± 0.021											
C[C@]1(O)C[C@@H](c2nc(-c3ccc4ccc(-c5ccccc5)nc4c3)c3c(N)nccn32)C1 [Linsitinib]	1.08 ± 0.029	1.1 ± 0.054	1.08 ± 0.026	1.07 ± 0.045	1.07 ± 0.025	1.07 ± 0.048	0.992 ± 0.018	0.917 ± 0.018	0.911 ± 0.026	0.845 ± 0.036	0.56 ± 0.0069											
COc1cc2c(Oc3ccc4[nH]c(C)cc4c3F)ncnc2cc1OCCCN1CCCC1 [Cediranib]	1.06 ± 0.017	1.05 ± 0.021	1.082 ± 0.0088	1.07 ± 0.02	1.05 ± 0.013	1.03 ± 0.011	0.992 ± 0.015	0.922 ± 0.022	0.908 ± 0.013	0.906 ± 0.032	0.898 ± 0.015											
CC(C)(C)c1cc(NC(=O)Nc2ccc(-c3cn4c(n3)sc3cc(OCCN5CCOCC5)ccc34)cc2)no1 [Quizartinib]	1.06 ± 0.037	1.05 ± 0.011	1.05 ± 0.025	1.05 ± 0.02	1.06 ± 0.026	1.049 ± 0.0031	1.03 ± 0.029	1.01 ± 0.027	0.994 ± 0.036	0.796 ± 0.05	0.7219 ± 0.0064											
COc1cc2/c(=N/c3ccc(Br)cc3F)nc[nH]c2cc1OCC1CCN(C)CC1 [Vandetanib]	1.03 ± 0.078	1.03 ± 0.048	1.02 ± 0.042	1.05 ± 0.048	1.05 ± 0.06	1.05 ± 0.045	0.99 ± 0.022	1.01 ± 0.026	0.908 ± 0.014	0.4145 ± 0.0025	0.0298 ± 0.0027											
COc1cc2c(cc1O)CCN[C@]21CS[C@@H]2c3c(OC(C)=O)c(C)c4c(c3[C@H](COC1=O)N1[C@@H]2[C@H]2c3c(cc(C)c(OC)c3O)C[C@@H]([C@@H]1O)N2C)OCO4 [Trabectedin]												1.07 ± 0.015	1.082 ± 0.0023	1.07 ± 0.042	0.946 ± 0.034	0.482 ± 0.054	0.00547 ± 0.0011	0.0576 ± 0.0015	0.0794 ± 0.014	0.0885 ± 0.032	1.08 ± 0.022	1.08 ± 0.022
Nc1cc(C(F)(F)F)c(-c2cc(N3CCOCC3)nc(N3CCOCC3)n2)cn1 [Buparlisib]	1.039 ± 0.01	1.02 ± 0.024	1.04 ± 0.012	1.02 ± 0.033	1.03 ± 0.032	1.03 ± 0.083	0.989 ± 0.023	0.9151 ± 0.008	0.708 ± 0.024	0.114 ± 0.0036	0.0584 ± 0.0016											
CC(C)NC(=O)C1CCC(n2c(NC(=O)c3ccc(F)cc3)nc3ccc(CN4CCC(C(C)(C)O)CC4)cc32)CC1 (stereo not drawn) [Belizatinib]	1.07 ± 0.02	1.06 ± 0.012	1.07 ± 0.043	1.08 ± 0.013	1.08 ± 0.041	1.06 ± 0.033	1.06 ± 0.034	0.923 ± 0.02	0.713 ± 0.038	0.399 ± 0.0041	0.189 ± 0.0089											
N#CC[C@H](C1CCCC1)n1cc(-c2ncnc3[nH]ccc23)cn1 [Ruxolitinib]	0.984 ± 0.0066	0.984 ± 0.012	0.97 ± 0.043	0.975 ± 0.025	0.95 ± 0.035	0.966 ± 0.028	0.943 ± 0.037	0.912 ± 0.037	0.88 ± 0.024	0.773 ± 0.037	0.583 ± 0.015											
